Laboratory results published in US9399637B2, “Substituted heteroaryl compounds and methods of use” (Calitor Sciences, LLC, priority 2014, dated 2016).

Tests used:
[1] = Pharmacokinetics after intravenous and oral administration in rats; format: in vivo; details: iv dosing, 1 mg/kg; for AUC(0-t) / half-life / Vd: rat, plasma; for Vd: read-out: Vss
Procedure: The LC/MS/MS system used in the analysis consists of an Agilent 1200 Series vacuum degasser, binary pump, well-plate autosampler, thermostatted column compartment, the Agilent G6430 Triple Quadrupole Mass Spectrometer with an electrosprayionization (ESI) source. Quantitative analysis was carried out using MRM mode. The parameters for MRM transitions are in the Table A.
An Agilent XDB-C18, 2.1×30 mm, 3.5 μM column was used for the analysis. 5 μL of the samples were injected. Analysis condition: The mobile phase was 0.1% formic acid in water (A) and 0.1% formic acid in methanol (B). The flow rate was 0.4 mL/min. And the gradient of Mobile phase was in the Table B.
Alternatively, an Agilent 6330 series LC/MS/MS spectrometer equipped with G1312A binary pumps, a G1367A autosampler and a G1314C UV detector were used in the analysis. An ESI source was used on the LC/MS/MS spectrometer. The analysis was done in positive ion mode as appropriate and the MRM transition for each analyte was optimized using standard solution. A Capcell MP-C18 100×4.6 mm I.D., […] column (Phenomenex, Torrance, Calif., USA) was used during the analysis. The mobile phase was 5 mM ammonia acetate, 0.1% MeOH in water (A): 5 mM ammonia acetate, 0.1% MeOH in acetonitrile (B) (70:30, v/v). The flow rate was 0.6 mL/min. Column was maintained at ambient temperature. 20 μL of the samples were injected.
The compounds disclosed herein are assessed in pharmacokinetic studies in mice, rats, dogs or monkeys. The compounds are administered as a water solution, 2% HPMC+1% TWEEN®80 in water solution, 5% DMSO+5% solutol in saline, 4% MC suspension or capsule. For the intravenous administration, the animals are generally given at 1 or 2 mg/kg dose. For the oral (p.o.) dosing, mice and rats are generally given 5 or 10 mg/kg dose, and dogs and monkeys are generally given 10 mg/kg dose. The blood samples (0.3 mL) are drawn at 0.25, 0.5, 1.0, 2.0, 3.0, 4.0, 6.0, 8.0, 12 and 24 h time points or 0.083, 0.25, 0.5, 1.0, 2.0, 4.0, 6.0, 8.0 and 24 h time points and centrifuged at 3,000 or 4000 rpm for 2 to 10 min. The plasma solutions are collected, and stored at −20° C. or −70° C. until analyzed by LC/MS/MS as described above.

[2] = Compound stability in human liver microsomes; format: in vitro ADME; details: pH 7.4; for half-life at 5 μM: human liver microsomes 0.5 mg protein/mL, compound 5 μM, NADPH, 37° C., read-out: Human T1/2; for CLint scaled at 5 μM: human liver microsomes, in vivo CLint extrapolated
Procedure: (§1) Human or rat liver microsomes incubations were conducted in duplicate in polypropylene tubes. The typical incubation mixtures consisted of human or rat liver microsomes (0.5 mg protein/mL), compounds of interest (5 μM) and NADPH (1.0 mM) in a total volume of 200 μL potassium phosphate buffer (PBS, 100 mM, pH 7.4). Compounds were dissolved in DMSO and diluted with PBS such that the final concentration of DMSO was 0.05%. The enzymatic reactions were commenced with the addition of […] after a 3-min preincubation and incubated in a water bath open to the air at 37° C. Reactions were terminated at various time points (0, 5, 10, 15, 30, 60 min) by adding equal volume of ice-cold acetonitrile. The samples were stored at […] until LC/MS/MS assays.
(§2) The concentrations of compounds in the incubation mixtures of human or rat liver microsomes were determined by a LC/MS/MS method. The ranges of the linearity in the concentration range were determined for each tested compounds.
(§3) A parallel incubation was performed using denatured microsomes as the negative control, and reactions were terminated at various time points (0, 15, 60 min) after incubation at 37° C.
(§4) Dextromethorphan (70 μM) was selected as the positive control, and reactions were terminated at various time points (0, 5, 10, 15, 30, 60 min) after incubation at 37° C. Both positive and negative control samples were included in each assay to ensure the integrity of the microsomal incubation system.
(§5) The concentrations of compounds in human or rat liver microsome incubations were plotted as a percentage of the relevant zero time point control for each reaction. The in vivo CLint were extrapolated (ref.: Naritomi, Y.; Terashita, S.; Kimura, S.; Suzuki, A.; Kagayama, A.; and Sugiyama, Y.; Prediction of human hepatic clearance from in vivo animal experiments and in vitro metabolic studies with liver microsomes from animals and humans. Drug Metab. Dispos., 2001, 29: 1316-1324).

[3] = Compound stability in rat liver microsomes; format: in vitro ADME; details: pH 7.4; for half-life at 5 μM: rat liver microsomes 0.5 mg protein/mL, compound 5 μM, NADPH, 37° C., read-out: Rat T1/2; for CLint scaled at 5 μM: rat liver microsomes, in vivo CLint extrapolated
Procedure: as §1, §2, §3, §4, §5

[4] = target: T1, JAK1 (h) (Homo sapiens, UniProt P23458); experiment: JAK1 kinase assay; format: biochemical
T1 construct: purchased Millipore UK Ltd (assays run there as a service)
T1 sequence (P23458 whole entry): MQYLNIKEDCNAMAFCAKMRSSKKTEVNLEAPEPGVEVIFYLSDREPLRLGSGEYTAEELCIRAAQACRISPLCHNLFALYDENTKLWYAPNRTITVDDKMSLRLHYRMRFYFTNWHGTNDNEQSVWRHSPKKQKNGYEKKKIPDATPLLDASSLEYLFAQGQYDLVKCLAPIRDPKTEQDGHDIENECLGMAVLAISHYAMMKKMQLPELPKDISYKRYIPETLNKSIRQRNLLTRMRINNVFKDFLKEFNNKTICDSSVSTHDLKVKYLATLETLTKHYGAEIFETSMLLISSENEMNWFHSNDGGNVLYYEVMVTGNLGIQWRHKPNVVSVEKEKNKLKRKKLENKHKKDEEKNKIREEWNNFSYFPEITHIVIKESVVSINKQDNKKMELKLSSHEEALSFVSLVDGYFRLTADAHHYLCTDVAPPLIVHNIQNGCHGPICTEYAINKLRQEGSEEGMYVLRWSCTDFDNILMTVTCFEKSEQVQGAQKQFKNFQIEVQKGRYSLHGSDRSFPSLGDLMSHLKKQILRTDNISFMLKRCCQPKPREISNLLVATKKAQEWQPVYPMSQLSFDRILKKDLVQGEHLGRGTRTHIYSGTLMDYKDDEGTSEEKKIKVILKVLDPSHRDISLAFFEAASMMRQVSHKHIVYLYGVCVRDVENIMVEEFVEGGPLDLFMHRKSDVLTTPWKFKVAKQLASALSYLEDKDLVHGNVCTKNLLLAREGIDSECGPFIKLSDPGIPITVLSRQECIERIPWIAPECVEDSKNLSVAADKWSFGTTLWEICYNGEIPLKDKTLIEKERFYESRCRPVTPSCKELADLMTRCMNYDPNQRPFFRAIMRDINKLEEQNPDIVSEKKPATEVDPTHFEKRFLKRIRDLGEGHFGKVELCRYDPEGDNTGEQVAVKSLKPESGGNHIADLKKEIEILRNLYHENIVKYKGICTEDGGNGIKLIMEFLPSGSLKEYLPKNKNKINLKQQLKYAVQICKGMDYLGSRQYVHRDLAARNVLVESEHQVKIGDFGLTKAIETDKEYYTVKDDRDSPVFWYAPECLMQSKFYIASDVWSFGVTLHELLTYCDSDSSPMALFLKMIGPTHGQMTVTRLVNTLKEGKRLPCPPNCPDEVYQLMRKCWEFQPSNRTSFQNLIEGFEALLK
Procedure: (§6) Kinase assays can be performed by measurement of incorporation of γ-^33P ATP into immobilized myelin basic protein (MBP). High binding white 384 well plates (Greiner) are coated with MBP (Sigma #M-1891) by incubation of 60 μL/well of 20 μg/mL MBP in Tris-buffered saline (TBS; 50 mM Tris pH 8.0, 138 mM NaCl, 2.7 mM KCl) for 24 h at 4° C. Plates are washed 3× with 100 μL TBS. Kinase reactions are carried out in a total volume of 34 μL in kinase buffer (5 mM Hepes pH 7.6, 15 mM NaCl, 0.01% bovine gamma globulin (Sigma #I-5506), 10 mM MgCl2, 1 mM DTT, 0.02% TritonX-100). Compound dilutions are performed in DMSO and added to assay wells to a final DMSO concentration of 1%. Each data point is measured in duplicate, and at least two duplicate assays are performed for each individual compound determination. Enzyme is added to final concentrations of 10 nM or 20 nM, for example. A mixture of unlabeled ATP and γ-^33P ATP is added to start the reaction (2×10^6 cpm of γ-^33P ATP per well (3000 Ci/mmole) and 10 μM unlabeled ATP, typically. The reactions are carried out for 1 h at room temperature with shaking Plates are washed 7× with TBS, followed by the addition of 50 μL/well scintillation fluid (Wallac). Plates are read using a Wallac Trilux counter. This is only one format of such assays; various other formats are possible, as known to one skilled in the art.
(§7) The above assay procedure can be used to determine the IC50 for inhibition and/or the inhibition constant, Ki. The IC50 is defined as the concentration of compound required to reduce the enzyme activity by 50% under the condition of the assay. The IC50 value is estimated by preparing a 10 point curve using a ½ log dilution series (for example, a typical curve may be prepared using the following compound concentrations: 3 μM, 1 μM, 0.3 μM, 0.1 μM, 0.03 μM, 0.01 μM, 0.003 μM, 0.001 μM, 0.0003 μM and 0 μM).
JAK1 (h) is incubated with 20 mM Tris/HCl pH 7.5, 0.2 mM EDTA, 500 μM […], 10 mM MgAcetate and [γ-^33P-ATP] (specific activity approx. 500 cpm/pmol, concentration as required).
(§8) The kinase assays described herein were performed at Millipore UK Ltd, Dundee Technology Park, Dundee DD2 1SW, UK.

[5] = target: T2, JAK2 (h) (Homo sapiens, UniProt O60674); experiment: JAK2 kinase assay; format: biochemical
T2 construct: purchased Millipore UK Ltd (assays run there as a service)
T2 sequence (O60674 whole entry): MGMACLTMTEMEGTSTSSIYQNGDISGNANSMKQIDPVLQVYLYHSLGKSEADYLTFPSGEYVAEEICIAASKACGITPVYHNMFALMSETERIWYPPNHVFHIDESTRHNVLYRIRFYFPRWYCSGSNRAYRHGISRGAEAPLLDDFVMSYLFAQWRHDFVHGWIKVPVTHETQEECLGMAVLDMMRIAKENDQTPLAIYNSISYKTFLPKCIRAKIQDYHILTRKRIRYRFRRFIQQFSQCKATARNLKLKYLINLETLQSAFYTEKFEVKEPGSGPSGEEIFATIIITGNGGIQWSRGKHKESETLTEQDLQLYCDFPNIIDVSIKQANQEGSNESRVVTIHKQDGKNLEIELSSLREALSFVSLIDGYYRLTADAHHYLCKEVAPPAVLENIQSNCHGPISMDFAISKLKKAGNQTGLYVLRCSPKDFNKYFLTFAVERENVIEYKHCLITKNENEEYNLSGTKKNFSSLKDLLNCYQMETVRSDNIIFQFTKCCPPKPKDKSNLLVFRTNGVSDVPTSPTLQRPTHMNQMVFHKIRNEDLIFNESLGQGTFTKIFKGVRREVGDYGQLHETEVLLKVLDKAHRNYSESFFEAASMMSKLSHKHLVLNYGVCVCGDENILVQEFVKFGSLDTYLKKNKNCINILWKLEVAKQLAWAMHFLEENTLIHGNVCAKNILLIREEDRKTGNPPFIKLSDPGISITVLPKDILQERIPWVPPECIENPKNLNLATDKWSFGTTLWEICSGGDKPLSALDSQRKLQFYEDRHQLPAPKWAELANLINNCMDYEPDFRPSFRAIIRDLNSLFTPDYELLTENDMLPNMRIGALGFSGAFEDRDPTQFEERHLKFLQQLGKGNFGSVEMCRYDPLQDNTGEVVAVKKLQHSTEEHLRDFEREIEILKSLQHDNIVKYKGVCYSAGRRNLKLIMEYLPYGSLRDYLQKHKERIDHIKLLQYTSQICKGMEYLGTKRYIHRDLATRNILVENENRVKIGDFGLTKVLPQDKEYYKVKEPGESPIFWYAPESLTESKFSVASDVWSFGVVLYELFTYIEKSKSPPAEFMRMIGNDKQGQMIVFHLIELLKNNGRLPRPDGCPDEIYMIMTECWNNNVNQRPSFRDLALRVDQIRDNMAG
Procedure: as §6, §7
(specific activity approx. 500 cpm/pmol, concentration as required).
as §8

Structure (SMILES)	Cl/F [1] [mL/min/kg]	AUC(0-t) [1] [ng·h/mL]	half-life [1] [min]	Vd [1] [L/kg]	half-life at 5 μM [2] [min]	CLint scaled at 5 μM [2] [mL/min/kg]	half-life at 5 μM [3] [min]	CLint scaled at 5 μM [3] [mL/min/kg]	IC50 [4] [nM]	IC50 [5] [nM]
Cc1c2ccc(Nc3nccc(N(C)C4CCC5(CC4)CCN(C(=O)CC#N)C5)n3)cc2nn1C (stereo not drawn) [Ex. 2, 3-(8-((2-((2,3-dimethyl-2H-indazol-6-yl)amino)pyrimidin-4-yl)(methyl)amino)-2-azaspiro[4.5]decan-2-yl)-3-oxopropanenitrile]	49.8	332	109	3.59	20.3	85.5	22.2	112	–	–
Cc1c2ccc(Nc3ncc(Cl)c(NC4CCC5(CC4)CCN(C(=O)CC#N)CC5)n3)cc2nn1C [Ex. 6, 3-(9-((5-chloro-2-((2,3-dimethyl-2H-indazol-6-yl)amino)pyrimidin-4-yl)amino)-3-azaspiro[5.5]undecan-3-yl)-3-oxopropanenitrile]	22.3	743	78.6	2.55	79.8	21.8	41	60.6	0.6	2
CC(=O)N1CCC2(CCC(Nc3nc(Nc4ccc5c(C)n(C)nc5c4)ncc3C)CC2)CC1 [Ex. 13, 1-(9-((2-((2,3-dimethyl-2H-indazol-6-yl)amino)-5-methylpyrimidin-4-yl)amino)-3-azaspiro[5.5]undecan-3-yl)ethanone]	75.5	238	38.4	3.5	51.7	33.6	27.9	89.2	2	–
Cc1cnc(Nc2ccc3c(C)n(C)nc3c2)nc1NC1CC2CN(C(=O)CC#N)CC2C1 (stereo not drawn) [Ex. 9, 3-(5-((2-((2,3-dimethyl-2H-indazol-6-yl)amino)-5-methylpyrimidin-4-yl)amino)hexahydrocyclopenta[c]pyrrol-2(1H)-yl)-3-oxopropanenitrile]	–	–	–	–	31.2	55.7	52.7	47.1	2	–
Cc1cnc(Nc2ccc3c(C)n(C)nc3c2)nc1NC1CCC2(CC1)CCN(C(=O)CC#N)CC2 [Ex. 12, 3-(9-((2-((2,3-dimethyl-2H-indazol-6-yl)amino)-5-methylpyrimidin-4-yl)amino)-3-azaspiro[5.5]undecan-3-yl)-3-oxopropanenitrile]	114	144	54	5.71	166	10.4	57.8	43	1	–
CC(=O)N1CC2CC(Nc3nc(Nc4ccc5c(C)n(C)nc5c4)ncc3C)CC2C1 (stereo not drawn) [Ex. 11, 1-(5-((2-((2,3-dimethyl-2H-indazol-6-yl)amino)-5-methylpyrimidin-4-yl)amino)hexahydrocyclopenta[c]pyrrol-2(1H)-yl)ethanone]	–	–	–	–	–	–	–	–	57	–
Cc1cnc(Nc2ccc3c(C)n(C)nc3c2)nc1NC1CC2CN(S(C)(=O)=O)CC2C1 (stereo not drawn) [Ex. 10, N^2-(2,3-dimethyl-2H-indazol-6-yl)-5-methyl-N^4-(2-(methylsulfonyl)octahydrocyclopenta[c]pyrrol-5-yl)pyrimidine-2,4-diamine]	33.2	501	43.8	1.75	20	87	50.7	49	7	–
